Laboratory results as given in patent publication US20080306055A1, “Heterocyclic Mchr1 Antagonists And Their Use In Therapy” (ASTRAZENECA AB, priority 2004, published 2008).

Experiments:
[1] = target: T1, recombinant hMCHr1 (Homo sapiens, UniProt Q99705); assay: MCHr1 functional assay ([35S]GTPγS binding, membranes); assay type: biochemical; details: ED80 concentration of MCH, antagonist mode
T1 construct: purchased Euroscreen
Experimental: Membranes expressing recombinant hMCHr1 ([…] protein; Euroscreen) were prepared in assay buffer (50 mM HEPES, 100 mM NaCl, 5 mM MgCl2, 1 mM EDTA, 200 μM DTT, 20 μM GDP (Sigma) containing 0.1 μg/ml BSA, pH7.4) before assay. The assays were performed using membranes at 6 μg/well in an assay volume of 200 μL and the appropriate concentrations of compounds prepared in DMSO. The reaction was started by addition of 0.056 nM [^35S]GTPγS (Specific activity >1000 Ci/mmol; Amersham) and an ED80 concentration of MCH (determined for each membrane and each MCH batch). Non-specific binding was determined using 20 μM non-radiolabelled GTPγS. Plates were incubated for 45 min at 30° C. Free and bound GTPγS were separated by filtration binding using GF/B filter mats presoaked in wash buffer (50 mM Tris, 5 mM MgCl2, 50 mM NaCl, pH 7.4) using a Micro96 cell harvester (Skatron Instruments) and the filters then dried at 50° C. before counting using a 1450 Microbeta TRILUX (Wallac).
Data are means ±SD for experiments performed in triplicate. IC50 values of antagonists were determined using non-linear regression analysis of concentration response curves using Activity Base. For instance, the following IC50 values were obtained for the compounds of the following examples: […]

[2] = target: T2, human Melanin concentrating hormone receptor 1 (hMCHr1) (Homo sapiens, UniProt Q99705); assay: MCH1 receptor radioligand binding (125I-MCH, CHO-K1 membranes); details: 125I-MCH displacement, membranes from CHO-K1 cells expressing hMCHr1; read-out: IC50 in human MCHr1 binding assay
T2 construct: purchased Euroscreen; host or cells: CHO-K1
Experimental: MCH1 Receptor Radioligand Binding.
Assays were performed on membranes prepared from CHO-K1 cells expressing the human Melanin concentrating hormone receptor 1 (hMCHr1, 5.45 pmol/mg protein; Euroscreen). Assays were performed in a 96-well plate format in a final reaction volume of 200 μl per well. Each well contained 6 μg of membrane proteins diluted in binding buffer (50 mM Tris, 3 mM MgCl2, 0.05% bovine serum albumin and the radioligand ^125I-MCH (IM344 Amersham) was added to give 10 000 cpm (counts per minute) per well. Each well contained 2 μl of the appropriate concentration of competitive antagonist prepared in DMSO and left to stand at 30° C. for 60 minutes. Non-specific binding was determined as that remaining following incubation with […] MCH (Melanin concentrating hormone, H-1482 Bachem). The reaction was terminated by transfer of the reaction to GF/A filters using a Micro96 Harvester (Skatron Instruments, Norway). Filters were washed with assay buffer. Radioligand retained on the filters was quantified using a 1450 Microbeta TRILUX (Wallac, Finland).
Non-specific binding was subtracted from all values determined. Maximum binding was that determined in the absence of any competitor following subtraction of the value determined for non-specific binding. Binding of compounds at various concentrations was plotted according to the equation
A is the bottom plateau of the curve i.e. the final minimum y value
B is the top of the plateau of the curve i.e. the final maximum y value
C is the x value at the middle of the curve. This represents the log EC50 value when A+B=100
D is, the slope factor. x is the original known x values. y is the original known y values.

[3] = target: HERG (Homo sapiens, UniProt Q12809); assay: HERG activity (planar-array-based voltage clamp); assay type: cell-based; details: modified planar-array voltage clamp method
Experimental: HERG testing was performed using a modified version of the method described by Kiss L, Bennett P B, Uebele V N, Koblan K S, Kane S A, Neagle B, Schroeder K. “High throughput ion-channel pharmacology: planar-array-based voltage clamp” Assay Drug Dev Technol. 1, 127-35. (2003).

T2 sequence (Q99705 whole entry): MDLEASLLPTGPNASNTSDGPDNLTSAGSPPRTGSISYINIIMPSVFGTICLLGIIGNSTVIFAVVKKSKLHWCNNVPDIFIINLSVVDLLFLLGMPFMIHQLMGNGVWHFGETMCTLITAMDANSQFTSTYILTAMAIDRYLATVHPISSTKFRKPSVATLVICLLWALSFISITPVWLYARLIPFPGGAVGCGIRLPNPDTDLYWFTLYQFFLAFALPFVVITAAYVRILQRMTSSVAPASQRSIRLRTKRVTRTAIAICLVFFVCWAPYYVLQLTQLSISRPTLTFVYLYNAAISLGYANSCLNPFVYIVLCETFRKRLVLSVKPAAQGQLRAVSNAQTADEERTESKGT
T1 sequence (Q99705 whole entry): as above
Chain of HERG (Q12809 whole entry): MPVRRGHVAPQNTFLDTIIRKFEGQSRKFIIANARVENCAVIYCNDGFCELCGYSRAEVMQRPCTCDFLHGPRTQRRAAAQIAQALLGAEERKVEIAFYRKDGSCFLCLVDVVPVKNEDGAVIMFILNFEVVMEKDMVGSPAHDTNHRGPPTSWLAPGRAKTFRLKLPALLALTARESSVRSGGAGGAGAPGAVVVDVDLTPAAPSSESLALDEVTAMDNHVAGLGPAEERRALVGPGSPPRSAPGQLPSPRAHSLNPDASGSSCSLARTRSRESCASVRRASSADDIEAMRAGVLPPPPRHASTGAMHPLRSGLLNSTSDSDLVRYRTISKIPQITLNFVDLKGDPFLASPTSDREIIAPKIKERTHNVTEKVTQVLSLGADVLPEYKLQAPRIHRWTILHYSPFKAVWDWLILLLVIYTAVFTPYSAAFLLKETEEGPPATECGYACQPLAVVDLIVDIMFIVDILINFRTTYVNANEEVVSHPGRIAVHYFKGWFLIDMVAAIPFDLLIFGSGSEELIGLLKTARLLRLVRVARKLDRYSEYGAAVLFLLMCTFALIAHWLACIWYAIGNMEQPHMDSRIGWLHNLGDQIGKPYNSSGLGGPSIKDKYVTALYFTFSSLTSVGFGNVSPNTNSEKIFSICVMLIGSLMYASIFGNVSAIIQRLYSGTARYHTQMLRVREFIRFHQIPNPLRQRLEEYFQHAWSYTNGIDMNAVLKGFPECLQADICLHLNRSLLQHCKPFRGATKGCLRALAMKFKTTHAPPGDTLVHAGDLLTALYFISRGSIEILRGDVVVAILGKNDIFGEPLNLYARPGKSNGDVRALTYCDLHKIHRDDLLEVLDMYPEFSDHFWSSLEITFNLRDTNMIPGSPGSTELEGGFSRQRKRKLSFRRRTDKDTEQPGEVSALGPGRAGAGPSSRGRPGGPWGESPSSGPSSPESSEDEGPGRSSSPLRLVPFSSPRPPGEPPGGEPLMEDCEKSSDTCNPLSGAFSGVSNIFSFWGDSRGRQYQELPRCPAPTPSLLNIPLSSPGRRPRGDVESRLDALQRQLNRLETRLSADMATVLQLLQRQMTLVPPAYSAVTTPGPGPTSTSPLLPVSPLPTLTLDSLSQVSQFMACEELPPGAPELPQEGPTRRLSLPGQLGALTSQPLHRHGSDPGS

SMILES | IC50 [1] | IC50 [2] | IC50 [3]
O=C(CC1CCN(Cc2ccn(-c3ccc(C(F)(F)F)cc3)c2)CC1)NCc1ccc(F)c(F)c1 [Example 2, N-(3,4-difluorobenzyl)-2-[1-({1-[4-(trifluoromethyl)phenyl]-1H-pyrrol-3-yl}methyl)piperidin-4-yl]acetamide] | 112 nM | 12 nM | –
CC(O)CCNC(=O)NC1CCN(Cc2ccn(-c3ccc(C(F)(F)F)cc3)c2)CC1 (stereo not drawn) [Example 76, N-(3-hydroxybutyl)-N′-[1-({1-[4-(trifluoromethyl)phenyl]-1H-pyrrol-3-yl}methyl)piperidin-4-yl]urea] | – | – | > 5000 nM
O=C(Nc1ccc(Cl)cc1Cl)NC1CCN(Cc2ccn(-c3ccc(C(F)(F)F)cc3)c2)CC1 [Example 6, N-(2,4-dichlorophenyl)-N′-[1-({1-[4-(trifluoromethyl)phenyl]-1H-pyrrol-3-yl}methyl)piperidin-4-yl]urea] | – | 72 nM | –

Second part, led by results:

IC50 [1] | IC50 [2] | SMILES | IC50 [3]
42 nM | – | O=C(NC1CCN(Cc2ccn(-c3ccc(C(F)(F)F)cc3)c2)CC1)C(c1ccccc1)c1ccccc1 [Example 1, 2,2-diphenyl-N-[1-({1-[4-(trifluoromethyl)phenyl]-1H-pyrrol-3-yl}methyl)piperidin-4-yl]acetamide] | –
– | 14 nM | O=C(NCCc1ccccc1)C1CCN(Cc2ccn(-c3ccc(C(F)(F)F)cc3)c2)CC1 [Example 3, N-(2-phenylethyl)-1-({1-[4-(trifluoromethyl)phenyl]-1H-pyrrol-3-yl}methyl)piperidine-4-carboxamide] | –
